The target in the assay is T1, Dual specificity protein phosphatase 6 (Rattus norvegicus, UniProt Q64346).
T1 sequence (Q64346 whole entry): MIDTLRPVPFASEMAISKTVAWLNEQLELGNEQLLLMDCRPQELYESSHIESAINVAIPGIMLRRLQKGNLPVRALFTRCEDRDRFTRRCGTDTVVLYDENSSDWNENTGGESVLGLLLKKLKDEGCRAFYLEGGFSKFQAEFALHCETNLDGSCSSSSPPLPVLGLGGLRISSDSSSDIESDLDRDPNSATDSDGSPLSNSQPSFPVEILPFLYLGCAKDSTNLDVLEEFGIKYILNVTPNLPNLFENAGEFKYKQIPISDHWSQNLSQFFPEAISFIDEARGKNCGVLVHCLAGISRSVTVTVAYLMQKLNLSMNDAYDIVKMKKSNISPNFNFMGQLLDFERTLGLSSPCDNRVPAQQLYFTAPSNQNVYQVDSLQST
Briefly: MKP-3 phosphatase inhibitors, SAR follow-up, biochemical (AID 1055). The following applies: pH 7; 23 °C.

The values that follow come from BindingDB's records for doi:10.7270/Q2N87841 (Burnham Center For Chemical Genomics, 2008).

Structures are written as SMILES.

A word on the IC50: it is the midpoint of a concentration-inhibition curve. A high value points to a need for much substance. `Cc1ccc2c(c1)C1C=CCC1C(C(=O)O)N2` (stereo unspecified) [MLS-0067149.0001] gave an IC50 of 7.9 µM.
